Like-named read-outs stand apart in the source and are kept apart here.
Legend:
sigma 2 receptor = sigma 2 receptor (Homo sapiens, UniProt Q5BJF2); experiment: Sigma 2 receptor radioligand competition binding; details: for Ki ratio Sig1R/Sig2R: Table 1, ratio of Sig1R Ki to Sig2R Ki
H1 = H1 (Homo sapiens, UniProt P35367); experiment: Radioligand competition binding, H1; details: Table 5; Cheng-Prusoff from best fit IC50
Alpha2C = Alpha2C (Homo sapiens, UniProt P18825); experiment: Radioligand competition binding, Alpha2C; details: Table 5; Cheng-Prusoff from best fit IC50
PBR = PBR (UniProt P16257); experiment: Radioligand competition binding, PBR; details: Table 5; Cheng-Prusoff from best fit IC50; one value marked (AVE)
D3 = D3 (Homo sapiens, UniProt P35462); experiment: Radioligand competition binding, D3; details: Table 5; Cheng-Prusoff from best fit IC50; one value marked (AVE)
H3 = H3 (Homo sapiens, UniProt Q9Y5N1); experiment: Radioligand competition binding, H3; details: Table 5; Cheng-Prusoff from best fit IC50
D1 = D1 (Homo sapiens, UniProt P21728); experiment: Radioligand competition binding, D1; details: Table 5; Cheng-Prusoff from best fit IC50; some values marked (AVE)
5-HT2B = 5-HT2B (Homo sapiens, UniProt P41595); experiment: Radioligand competition binding, 5-HT2B; details: Table 5; Cheng-Prusoff from best fit IC50
5-HT1D = 5-HT1D (Homo sapiens, UniProt P28221); experiment: Radioligand competition binding, 5-HT1D; details: Table 5; Cheng-Prusoff from best fit IC50
5-HT6 = 5-HT6 (Homo sapiens, UniProt P50406); experiment: Radioligand competition binding, 5-HT6; details: Table 5; Cheng-Prusoff from best fit IC50
5-HT7 = 5-HT7 (Homo sapiens, UniProt P34969); experiment: Radioligand competition binding, 5-HT7; details: Table 5; Cheng-Prusoff from best fit IC50
sigma 1 receptor = sigma 1 receptor (Homo sapiens, UniProt Q99720); experiment: Sigma 1 receptor radioligand competition binding
M4 = M4 (Homo sapiens, UniProt P08173); experiment: Radioligand competition binding, M4; details: Table 5; Cheng-Prusoff from best fit IC50; one value marked (AVE)
5-HT1A = target: T1, 5-HT1A (Homo sapiens, UniProt P08908); experiment: Radioligand competition binding, 5-HT1A; details: Table 5; Cheng-Prusoff from best fit IC50
T1 sequence (P08908 1-422): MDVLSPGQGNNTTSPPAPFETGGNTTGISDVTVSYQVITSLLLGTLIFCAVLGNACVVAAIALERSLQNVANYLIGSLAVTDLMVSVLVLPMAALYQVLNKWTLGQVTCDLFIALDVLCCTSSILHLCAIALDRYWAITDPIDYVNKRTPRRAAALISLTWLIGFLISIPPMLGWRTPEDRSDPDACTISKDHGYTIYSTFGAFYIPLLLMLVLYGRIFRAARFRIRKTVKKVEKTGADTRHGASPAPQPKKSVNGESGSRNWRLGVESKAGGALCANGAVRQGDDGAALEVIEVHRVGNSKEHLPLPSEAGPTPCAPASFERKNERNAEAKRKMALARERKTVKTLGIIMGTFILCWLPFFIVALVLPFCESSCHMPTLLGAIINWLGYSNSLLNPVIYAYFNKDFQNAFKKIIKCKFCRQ

5-ht5a = 5-ht5a (Homo sapiens, UniProt P47898); experiment: Radioligand competition binding, 5-ht5a; details: Table 5; Cheng-Prusoff from best fit IC50
KOR = KOR (Homo sapiens, UniProt P41145); experiment: Radioligand competition binding, KOR; details: Table 5; Cheng-Prusoff from best fit IC50; some values marked (AVE)
D5 = D5 (Homo sapiens, UniProt P21918); experiment: Radioligand competition binding, D5; details: Table 5; Cheng-Prusoff from best fit IC50
5-HT2A = 5-HT2A (Homo sapiens, UniProt P28223); experiment: Radioligand competition binding, 5-HT2A; details: Table 5; Cheng-Prusoff from best fit IC50
H2 = H2 (Homo sapiens, UniProt P25021); experiment: Radioligand competition binding, H2; details: Table 5; Cheng-Prusoff from best fit IC50
Alpha2A = target: T2, Alpha2A (Homo sapiens, UniProt P08913); experiment: Radioligand competition binding, Alpha2A; details: Table 5; Cheng-Prusoff from best fit IC50
T2 sequence (P08913 1-465): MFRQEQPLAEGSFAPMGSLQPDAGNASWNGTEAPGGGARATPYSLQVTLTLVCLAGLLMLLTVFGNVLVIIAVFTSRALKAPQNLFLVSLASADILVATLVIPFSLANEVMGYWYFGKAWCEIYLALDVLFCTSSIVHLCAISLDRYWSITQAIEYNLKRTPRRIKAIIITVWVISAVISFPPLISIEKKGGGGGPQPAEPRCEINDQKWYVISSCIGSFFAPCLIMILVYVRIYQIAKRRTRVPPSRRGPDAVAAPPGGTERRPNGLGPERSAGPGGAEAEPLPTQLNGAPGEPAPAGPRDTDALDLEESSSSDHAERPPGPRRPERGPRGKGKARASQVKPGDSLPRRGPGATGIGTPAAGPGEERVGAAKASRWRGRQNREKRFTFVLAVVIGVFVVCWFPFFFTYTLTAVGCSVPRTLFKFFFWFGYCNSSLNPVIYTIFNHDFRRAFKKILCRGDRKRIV

5-HT2C = target: T3, 5-HT2C (Homo sapiens, UniProt P28335); experiment: Radioligand competition binding, 5-HT2C; details: Table 5; Cheng-Prusoff from best fit IC50
T3 sequence (P28335 33-458): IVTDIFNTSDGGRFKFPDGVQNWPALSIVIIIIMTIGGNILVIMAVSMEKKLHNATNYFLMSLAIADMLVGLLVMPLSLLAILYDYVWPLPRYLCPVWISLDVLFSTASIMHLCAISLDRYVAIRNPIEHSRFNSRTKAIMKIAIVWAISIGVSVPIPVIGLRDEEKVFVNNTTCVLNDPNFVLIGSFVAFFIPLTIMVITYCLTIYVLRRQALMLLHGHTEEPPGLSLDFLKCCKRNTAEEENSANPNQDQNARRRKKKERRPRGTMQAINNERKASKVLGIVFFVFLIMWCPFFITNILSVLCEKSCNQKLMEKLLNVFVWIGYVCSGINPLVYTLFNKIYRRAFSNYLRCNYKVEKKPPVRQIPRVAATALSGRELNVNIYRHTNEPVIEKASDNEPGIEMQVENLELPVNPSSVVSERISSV

Alpha1D = Alpha1D (Homo sapiens, UniProt P25100); experiment: Radioligand competition binding, Alpha1D; details: Table 5; Cheng-Prusoff from best fit IC50
M5 = M5 (Homo sapiens, UniProt P08912); experiment: Radioligand competition binding, M5; details: Table 5; Cheng-Prusoff from best fit IC50
Alpha2B = Alpha2B (Homo sapiens, UniProt P18089); experiment: Radioligand competition binding, Alpha2B; details: Table 5; Cheng-Prusoff from best fit IC50
MOR = MOR (Homo sapiens, UniProt P35372); experiment: Radioligand competition binding, MOR; details: Table 5; Cheng-Prusoff from best fit IC50
D4 = target: T4, D4 (Homo sapiens, UniProt P21917); experiment: Radioligand competition binding, D4; details: Table 5; Cheng-Prusoff from best fit IC50
T4 sequence (P21917 1-419): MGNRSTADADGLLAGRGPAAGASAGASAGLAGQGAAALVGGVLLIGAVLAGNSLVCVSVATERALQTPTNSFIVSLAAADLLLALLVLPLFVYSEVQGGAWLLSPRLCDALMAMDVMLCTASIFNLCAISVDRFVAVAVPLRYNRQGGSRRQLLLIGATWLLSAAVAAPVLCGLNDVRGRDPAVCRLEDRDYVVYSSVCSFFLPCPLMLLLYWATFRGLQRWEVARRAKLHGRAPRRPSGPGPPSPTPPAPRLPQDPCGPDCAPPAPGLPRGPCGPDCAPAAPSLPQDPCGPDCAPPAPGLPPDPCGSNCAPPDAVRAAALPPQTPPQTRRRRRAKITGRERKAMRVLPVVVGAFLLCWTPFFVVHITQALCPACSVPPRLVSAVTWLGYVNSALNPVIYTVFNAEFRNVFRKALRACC

Beta3 = Beta3 (Homo sapiens, UniProt P13945); experiment: Radioligand competition binding, Beta3; details: Table 5; Cheng-Prusoff from best fit IC50
5-HT1B = 5-HT1B (Homo sapiens, UniProt P28222); experiment: Radioligand competition binding, 5-HT1B; details: Table 5; Cheng-Prusoff from best fit IC50
DAT = DAT (Homo sapiens, UniProt Q01959); experiment: Radioligand competition binding, DAT; details: Table 5; Cheng-Prusoff from best fit IC50
D2 = D2 (Homo sapiens, UniProt P14416); experiment: Radioligand competition binding, D2; details: Table 5; Cheng-Prusoff from best fit IC50
Alpha1A = Alpha1A (Homo sapiens, UniProt P35348); experiment: Radioligand competition binding, Alpha1A; details: Table 5; Cheng-Prusoff from best fit IC50
H4 = H4 (Homo sapiens, UniProt Q9H3N8); experiment: Radioligand competition binding, H4; details: Table 5; Cheng-Prusoff from best fit IC50; value marked (AVE)
[1] = Table 5, Cheng-Prusoff from best fit IC50, read-out: Ki Sigma 2
[2] = Table 1, 7-piperazinyl-tetrahydronaphthalene analogs, read-out: Ki (nM) Sig2R
[3] = Table 1, 7-piperazinyl-tetrahydronaphthalene analogs, read-out: Ki (nM) Sig1R

SMILES | Ki (sigma 2 receptor; [1]) | Ki (H1) | Ki (D5) | Ki (PBR) | Ki (D3) | Ki (H3) | Ki (D1) | Ki (5-HT2B) | Ki (sigma 2 receptor; [2]) | Ki ratio Sig1R/Sig2R (sigma 2 receptor) | Ki (5-HT1D) | Ki (5-HT6) | Ki (5-HT7) | Ki (sigma 1 receptor; [3]) | Ki (5-HT1A) | Ki (5-ht5a) | Ki (5-HT2A) | Ki (H2) | Ki (D4) | Ki (5-HT1B) | also measured
CN(C(=O)OCc1ccccc1)C1CCCc2ccc(N3CCN(C4CCCC4)CC3)cc21 (stereo not drawn) [MDW-1-140, Benzyl (7-(4-cyclopentylpiperazin-1-yl)-1,2,3,4-tetrahydronaphthalen-1-yl)(methyl)carbamate] | 2.1 nM | 28 nM | 2600 nM | 4060 nM | 462 nM | 965 nM | 457 nM | 263 nM | 2 nM | 41 | 509 nM | 1020 nM | 1480 nM | 86 nM | 367 nM | 2500 nM | 547 nM | 211 nM |  |  | Ki (M4): 2980 nM; Ki (KOR): ≥ 10000 nM; Ki (Alpha2A): 1110 nM; Ki (5-HT2C): 1460 nM; Ki (Alpha1D): 1810 nM; Ki (M5): 3690 nM
CN(C(=O)OCc1ccccc1)C1CCCc2ccc(N3CCN(CCCO)CC3)cc21 (stereo not drawn) [MDW-1-177, Benzyl (7-(4-(3-hydroxypropyl)piperazin-1-yl)-1,2,3,4-tetrahydronaphthalen-1-yl)(methyl)carbamate] | 21 nM |  |  |  | 597 nM |  | 1350 nM | 99 nM | 21 nM | 23 | 136 nM | 1230 nM | 585 nM | 474 nM | 528 nM |  | 632 nM | 291 nM | > 10000 nM | 261 nM | Ki (Beta3): 8040 nM
CCCN(C(=O)OCc1ccccc1)C1CCCc2ccc(N3CCN(CCC(=O)OCC)CC3)cc21 (stereo not drawn) [MDW-1-191, Ethyl 3-(4-(8-(((benzyloxy)carbonyl)(propyl)amino)-5,6,7,8-tetrahydronaphthalen-2-yl)piperazin-1-yl)propanoate] |  |  |  | 1670 nM | 315 nM |  |  | 771 nM | 19 nM | 124 | 1140 nM | 1560 nM | 891 nM | 2360 nM | 569 nM | 1530 nM | 1730 nM | 1290 nM | 1720 nM | 441 nM | Ki (DAT): > 10000 nM; Ki (D2): 2410 nM; Ki (Alpha1A): 1410 nM

The next lines start with results.

Ki (sigma 2 receptor; [1]) | Ki (H1) | Ki (D5) | SMILES | Ki (PBR) | Ki (D3) | Ki (H3) | Ki (D1) | Ki (5-HT2B) | Ki (sigma 2 receptor; [2]) | Ki ratio Sig1R/Sig2R (sigma 2 receptor) | Ki (5-HT1D) | Ki (5-HT6) | Ki (5-HT7) | Ki (sigma 1 receptor; [3]) | Ki (5-HT1A) | Ki (5-ht5a) | Ki (5-HT2A) | Ki (H2) | Ki (D4) | Ki (5-HT1B) | also measured
522 nM | 182 nM |  | CN(Cc1cc(Cl)cc(Cl)c1)C1CCCc2ccc(N3CCOCC3)cc21 (stereo not drawn) [MDW-1-131, N-(3,5-dichlorobenzyl)-N-methyl-7-morpholino-1,2,3,4-tetrahydronaphthalen-1-amine] | 902 nM | 3390 nM |  |  |  |  |  |  |  |  |  |  |  |  |  |  |  | Ki (Alpha2C): 2540 nM
50 nM |  | > 10000 nM | CN(CCCO)C1CCCc2ccc(-c3ccc(C(F)(F)F)cc3)cc21 (stereo not drawn) [MDW-1-144, 3-(Methyl(7-(4-(trifluoromethyl)phenyl)-1,2,3,4-tetrahydronaphthalen-1-yl)amino)propan-1-ol] |  |  |  |  | 3590 nM |  |  |  |  | 2400 nM |  |  | > 10000 nM |  | 327 nM |  |  | Ki (Alpha2B): 524 nM; Ki (sigma 1 receptor; Table 5, Cheng-Prusoff from best fit IC50, read-out: Ki Sigma 1): 1270 nM; Ki (MOR): 307 nM; Ki (KOR): 154 nM
5.5 nM | 20 nM | 3960 nM | CCCN1CCN(c2ccc3c(c2)C(N(C)C(=O)OCc2ccccc2)CCC3)CC1 (stereo not drawn) [MDW-2-76, Benzyl methyl(7-(4-propylpiperazin-1-yl)-1,2,3,4-tetrahydronaphthalen-1-yl)carbamate] | 8330 nM | 438 nM | 1350 nM | 690 nM | 100 nM | 6 nM | 36 | 135 nM | 778 nM | 459 nM | 200 nM | 156 nM |  | 315 nM | 302 nM | 6660 nM | 362 nM | Ki (Alpha2B): 3330 nM; Ki (Alpha2A): 1030 nM; Ki (5-HT2C): 762 nM; Ki (Alpha1D): 2600 nM; Ki (M5): 6620 nM; Ki (Alpha1A): 2360 nM; Ki (H4): 5880 nM
